In ChEMBL document CHEMBL5543097, “Synthesis and structure-activity relationships of novel 14-membered 2-fluoro ketolides with structural modification at the C11 position” (Eur J Med Chem, 2024):
Converted amounts (≈) assume the structure as drawn.

Experiments:
[1] = system: Staphylococcus epidermidis; assay: Antibacterial activity against erythromycin-resistant Staphylococcus epidermidis 19-9 assessed as inhibition of visible bacterial growth incubated for 18 hrs by broth microdilution method; type: functional
[2] = system: Staphylococcus epidermidis; assay: Antibacterial activity against erythromycin-resistant Staphylococcus epidermidis 19-6 assessed as inhibition of visible bacterial growth incubated for 18 hrs by broth microdilution method; type: functional
[3] = system: Streptococcus pneumoniae; assay: Antibacterial activity against erythromycin-resistant Streptococcus pneumoniae SPN19-8 assessed as inhibition of visible bacterial growth incubated for 18 hrs by broth microdilution method; type: functional
[4] = system: Streptococcus pneumoniae; assay: Antibacterial activity against erythromycin-resistant Streptococcus pneumoniae SPN19-13 assessed as inhibition of visible bacterial growth incubated for 18 hrs by broth microdilution method; type: functional
[5] = system: Staphylococcus epidermidis; assay: Antibacterial activity against erythromycin-resistant Staphylococcus epidermidis 19-5 assessed as inhibition of visible bacterial growth incubated for 18 hrs by broth microdilution method; type: functional
[6] = system: Haemophilus influenzae; assay: Antibacterial activity against Haemophilus influenzae HIN 19-18 assessed as inhibition of bacterial growth incubated for 20 to 24 hrs by CLSI based broth microdilution method; type: functional; details: HIN 19-18, time 20-24 hrs
[7] = system: Moraxella catarrhalis; assay: Antibacterial activity against Moraxella catarrhalis BCA 19-5 assessed as inhibition of bacterial growth incubated for 24 hrs by CLSI based broth microdilution method; type: functional; details: Moraxella catarrhalis, BCA 19-5, 24 h, read-out: MIC
[8] = system: Streptococcus agalactiae; assay: Antibacterial activity against erythromycin-resistant Streptococcus agalactiae 19-9 assessed as inhibition of visible bacterial growth incubated for 18 hrs by broth microdilution method; type: functional
[9] = Cytotoxicity against mouse AML12 cells assessed as reduction in cell viability incubated for 48 hrs by MTT assay; type: toxicity, cell-based
[10] = system: Haemophilus influenzae; assay: Antibacterial activity against Haemophilus influenzae HIN 19-15 assessed as inhibition of bacterial growth incubated for 20 to 24 hrs by CLSI based broth microdilution method; type: functional; details: time 20-24 hrs
[11] = system: Staphylococcus epidermidis; assay: Antibacterial activity against erythromycin-resistant Staphylococcus epidermidis 19-11 assessed as inhibition of visible bacterial growth incubated for 18 hrs by broth microdilution method; type: functional
[12] = system: Moraxella catarrhalis; assay: Antibacterial activity against Moraxella catarrhalis BCA 19-6 assessed as inhibition of bacterial growth incubated for 24 hrs by CLSI based broth microdilution method; type: functional; details: Moraxella catarrhalis, BCA 19-6, 24 h, read-out: MIC
[13] = system: Staphylococcus epidermidis; assay: Antibacterial activity against erythromycin-resistant Staphylococcus epidermidis 19-8 assessed as inhibition of visible bacterial growth incubated for 18 hrs by broth microdilution method; type: functional
[14] = system: Streptococcus pneumoniae; assay: Antibacterial activity against erythromycin-resistant Streptococcus pneumoniae SPN19-14 assessed as inhibition of visible bacterial growth incubated for 18 hrs by broth microdilution method; type: functional
[15] = system: Streptococcus pyogenes; assay: Antibacterial activity against erythromycin-resistant Streptococcus pyogenes ATCC 19615 assessed as inhibition of visible bacterial growth incubated for 18 hrs by broth microdilution method; type: functional
[16] = system: Staphylococcus epidermidis; assay: Antibacterial activity against erythromycin-resistant Staphylococcus epidermidis 19-4 assessed as inhibition of visible bacterial growth incubated for 18 hrs by broth microdilution method; type: functional
[17] = system: Streptococcus agalactiae; assay: Antibacterial activity against erythromycin-resistant Streptococcus agalactiae 19-8 assessed as inhibition of visible bacterial growth incubated for 18 hrs by broth microdilution method; type: functional
[18] = system: Moraxella catarrhalis; assay: Antibacterial activity against Moraxella catarrhalis BCA 19-31 assessed as inhibition of bacterial growth incubated for 24 hrs by CLSI based broth microdilution method; type: functional; details: BCA 19-31, 24 h
[19] = system: Haemophilus influenzae; assay: Antibacterial activity against Haemophilus influenzae HIN 20-18 assessed as inhibition of bacterial growth incubated for 20 to 24 hrs by CLSI based broth microdilution method; type: functional; details: time 20-24 hrs

Structure (SMILES)	MIC [1]	MIC [2]	MIC [3]	MIC [4]	MIC [5]	MIC [6]	MIC [7]	MIC [8]	CC50 at 48 h [9]	MIC [10]	MIC [11]	MIC [12]	MIC [13]	MIC [14]	MIC [15]	MIC [16]	MIC [17]	MIC [18]	MIC [19]
CC[C@H]1OC(=O)[C@H](C)C(=O)[C@H](C)[C@@H](O[C@@H]2O[C@H](C)C[C@H](N(C)C)[C@H]2O)[C@](C)(OC)C[C@@H](C)C(=O)[C@H](C)[C@H]2N(CCCOC(=O)Nc3ccc(C)cc3)C(=O)O[C@]12C	0.5 µg/mL (≈ 0.622 µM)	0.125 µg/mL (≈ 0.155 µM)	0.5 µg/mL (≈ 0.622 µM)	0.25 µg/mL (≈ 0.311 µM)	0.125 µg/mL (≈ 0.155 µM)	32 µg/mL (≈ 39.8 µM)	0.125 µg/mL (≈ 0.155 µM)	1 µg/mL (≈ 1.24 µM)	20.8 µM	32 µg/mL (≈ 39.8 µM)	0.125 µg/mL (≈ 0.155 µM)	0.25 µg/mL (≈ 0.311 µM)	< 0.03 µg/mL	0.25 µg/mL (≈ 0.311 µM)	< 0.03 µg/mL	0.125 µg/mL (≈ 0.155 µM)	< 0.03 µg/mL	1 µg/mL (≈ 1.24 µM)	
CCOc1ccc(NC(=O)OCCCN2C(=O)O[C@]3(C)[C@@H](CC)OC(=O)[C@@](C)(F)C(=O)[C@H](C)[C@@H](O[C@@H]4O[C@H](C)C[C@H](N(C)C)[C@H]4O)[C@](C)(OC)C[C@@H](C)C(=O)[C@H](C)[C@@H]23)cc1	0.5 µg/mL (≈ 0.587 µM)	0.25 µg/mL (≈ 0.293 µM)	0.25 µg/mL (≈ 0.293 µM)	0.5 µg/mL (≈ 0.587 µM)	0.06 µg/mL (≈ 0.0704 µM)	16 µg/mL (≈ 18.8 µM)	0.5 µg/mL (≈ 0.587 µM)	2 µg/mL (≈ 2.35 µM)	36.5 µM	> 16 µg/mL	0.125 µg/mL (≈ 0.147 µM)	1 µg/mL (≈ 1.17 µM)	0.25 µg/mL (≈ 0.293 µM)	0.5 µg/mL (≈ 0.587 µM)	< 0.03 µg/mL	0.5 µg/mL (≈ 0.587 µM)		0.5 µg/mL (≈ 0.587 µM)	> 16 µg/mL
CC[C@H]1OC(=O)[C@@](C)(F)C(=O)[C@H](C)[C@@H](O[C@@H]2O[C@H](C)C[C@H](N(C)C)[C@H]2O)[C@](C)(OC)C[C@@H](C)C(=O)[C@H](C)[C@H]2N(CCCOC(=O)Nc3ccccc3OC)C(=O)O[C@]12C	0.25 µg/mL (≈ 0.298 µM)	0.125 µg/mL (≈ 0.149 µM)	0.125 µg/mL (≈ 0.149 µM)	0.125 µg/mL (≈ 0.149 µM)	0.06 µg/mL (≈ 0.0716 µM)		11.1 µg/mL (≈ 13.2 µM)	0.5 µg/mL (≈ 0.597 µM)	83.8 µM	8 µg/mL (≈ 9.55 µM)	0.125 µg/mL (≈ 0.149 µM)	0.41 µg/mL (≈ 0.489 µM)	0.06 µg/mL (≈ 0.0716 µM)	0.125 µg/mL (≈ 0.149 µM)	< 0.03 µg/mL	0.06 µg/mL (≈ 0.0716 µM)	< 0.03 µg/mL	0.125 µg/mL (≈ 0.149 µM)	
CC[C@H]1OC(=O)[C@@](C)(F)C(=O)[C@H](C)[C@@H](O[C@@H]2O[C@H](C)C[C@H](N(C)C)[C@H]2O)[C@](C)(OC)C[C@@H](C)C(=O)[C@H](C)[C@H]2N(CCCOC(=O)Nc3ccc(-c4ccccc4)cc3)C(=O)O[C@]12C	0.5 µg/mL (≈ 0.566 µM)	1 µg/mL (≈ 1.13 µM)	1 µg/mL (≈ 1.13 µM)	1 µg/mL (≈ 1.13 µM)	< 0.03 µg/mL	8 µg/mL (≈ 9.05 µM)		4 µg/mL (≈ 4.52 µM)	20.7 µM	32 µg/mL (≈ 36.2 µM)	0.5 µg/mL (≈ 0.566 µM)	1 µg/mL (≈ 1.13 µM)	0.25 µg/mL (≈ 0.283 µM)	0.125 µg/mL (≈ 0.141 µM)	< 0.03 µg/mL	0.125 µg/mL (≈ 0.141 µM)	< 0.03 µg/mL	1 µg/mL (≈ 1.13 µM)	
CC[C@H]1OC(=O)[C@H](C)C(=O)[C@H](C)[C@@H](O[C@@H]2O[C@H](C)C[C@H](N(C)C)[C@H]2O)[C@](C)(OC)C[C@@H](C)C(=O)[C@H](C)[C@H]2N(CCCOC(=O)Nc3cccc(C)c3)C(=O)O[C@]12C	1 µg/mL (≈ 1.24 µM)	0.5 µg/mL (≈ 0.622 µM)	1 µg/mL (≈ 1.24 µM)	1 µg/mL (≈ 1.24 µM)	0.5 µg/mL (≈ 0.622 µM)	32 µg/mL (≈ 39.8 µM)	0.5 µg/mL (≈ 0.622 µM)	0.5 µg/mL (≈ 0.622 µM)	71.7 µM	32 µg/mL (≈ 39.8 µM)	0.5 µg/mL (≈ 0.622 µM)	0.5 µg/mL (≈ 0.622 µM)	0.5 µg/mL (≈ 0.622 µM)	1 µg/mL (≈ 1.24 µM)	< 0.03 µg/mL	2 µg/mL (≈ 2.49 µM)	< 0.03 µg/mL	1 µg/mL (≈ 1.24 µM)	
CC[C@H]1OC(=O)[C@H](C)C(=O)[C@H](C)[C@@H](O[C@@H]2O[C@H](C)C[C@H](N(C)C)[C@H]2O)[C@](C)(OC)C[C@@H](C)C(=O)[C@H](C)[C@H]2N(CCCOC(=O)Nc3ccc(C(F)(F)F)cc3)C(=O)O[C@]12C	0.5 µg/mL (≈ 0.583 µM)	0.25 µg/mL (≈ 0.291 µM)	0.125 µg/mL (≈ 0.146 µM)	0.125 µg/mL (≈ 0.146 µM)	0.06 µg/mL (≈ 0.0699 µM)			0.5 µg/mL (≈ 0.583 µM)	73.8 µM	4 µg/mL (≈ 4.66 µM)	0.125 µg/mL (≈ 0.146 µM)		0.06 µg/mL (≈ 0.0699 µM)	0.125 µg/mL (≈ 0.146 µM)	< 0.03 µg/mL	0.125 µg/mL (≈ 0.146 µM)	< 0.03 µg/mL	0.06 µg/mL (≈ 0.0699 µM)	
